≈ marks a conversion by molar mass, not a printed value. Like-named read-outs stand apart in the source and are kept apart here. Blank lines part the entries; values can stand above or below the compound they belong to.
Legend:
[1] = test system: MIA PaCa-2 cells; test: In vitro anti-proliferative activity in combination with gemcitabine against MIA PaCa-2 cells; type: cell-based
Method: (§1) MIA PaCa-2 cells were seeded on a 384-well plate at 3000 cells/well, and 20 nM gemcitabine was added. After overnight adherence culture, DMSO or the compounds serially diluted 1:5 from 1000 nM were added. The viability was assessed 72 h after dosing by measuring the intracellular ATP content. The inhibition percentage of viable cells by the compounds was calculated by comparing with the DMSO group, and the IC50 value was calculated.

[2] = In vivo pharmacokinetic experiment in mice; parameters: species or system CD-1 female mice; details: mouse
Method: CD-1 female mice aged 7 to 10 weeks were intravenously administered and orally administered at a dose of 2 mg/kg and 10 mg/kg, respectively. The mice were fasted for at least 12 h before the administration and given food 4 h after the administration, and they were given ad libitum access to water during the experiment. On the day of the experiment, animals in the intravenous group were administered the corresponding compound by single injection via the tail vein at an administration volume of 10 mL/kg. Animals in the oral group were administered the corresponding compound by single intragastric injection at an administration volume of 10 mL/kg. The animals were weighed before administration, and the administration volume was calculated according to the body weight. The sample collection time was 0.083 h (injection group), 0.167 h, 0.5 h, 1 h, 2 h, 4 h, 8 h, and 24 h. About 200 μL of whole blood was collected through the submaxillary venous plexus at each time point and used to prepare plasma for concentration determination by high-performance liquid chromatography-tandem mass spectrometry (LC-MS/MS). All animals were euthanized with CO2 anesthesia after the PK samples were collected at the last time point. The plasma concentrations were processed using a non-compartmental model of Phoenix WinNonlin™ version 8.3 (Certara) pharmacokinetic software, and the pharmacokinetic parameters were calculated using a linear-log trapezoidal method.

[3] = in vitro; details: dog, MDCK
Method: (§2) In vitro passive permeability or the ability to serve as a P-glycoprotein (P-gp) transport substrate was tested using MDCK cells (MDCK wild type) or MDCK cells stably transduced with MDRI (MDCK-MDRI), respectively. The permeability experiment was performed in duplicate in a transwell system at a single concentration (5 μM). The cells were incubated for […] Apical-to-basolateral (A to B, A-B) transport and basolateral-to-apical (B to A, B-A) transport of the corresponding compound were determined, and the permeation rate (apparent permeability) (Papp×10^−6 cm/sec) and efflux ratio (Papp (B−A)/Papp (A−B)) of the test compound were calculated.

[4] = test system: P-glycoprotein (P-gp, MDR1); test: in vitro; details: dog
Method: as §2

[5] = In vitro solubility experiment; type: physicochemical; details: for solubility at 0.5 h: organic solvent or mixture, thermodynamic from solid
Method: (§3) Preparation of a standard curve: 10.01 mg of sample was weighed out and placed in a volumetric flask, and the volume was brought to 10 mL with acetonitrile/water (v/v, 9/1) to prepare 1.001 mg/mL of standard solution; the standard solution was then serially diluted to 0.5005 mg/mL, 0.1001 mg/mL, 0.05005 mg/mL, 0.01001 mg/mL, and 0.001001 mg/mL to generate the standard curve, and a linear equation was fitted by taking the peak area of the sample as a vertical axis and the concentration as a horizontal axis.
(§4) Solubility and stability test: 15 mg of sample was added to 3 mL of vehicle (FaSSIF, FeSSIF, SGF, or water) to prepare a corresponding suspension at a target concentration of 5 mg/mL. The prepared suspension was stirred on a shaker (800 rpm) at 37° C. for 0.5 h, and the suspension was then filtered. The filtrate was diluted with a diluent to a corresponding multiple so that the peak height could not exceed the standard curve, and the solubility and purity were detected using HPLC.

[6] = In vitro stability experiment (HPLC purity after stirring in vehicle); type: physicochemical
Method: as §3, §4

[7] = target: recombinant protein MYT1 (Homo sapiens (Human), UniProt Q99640); test: In vitro assay for inhibiting MYT1 kinase activity (ADP-GLO); type: biochemical; details: 10 μM ATP, read-out: Inhibitory activity against recombinant protein MYT1 IC50
Chain of recombinant protein MYT1 (Q99640 whole entry): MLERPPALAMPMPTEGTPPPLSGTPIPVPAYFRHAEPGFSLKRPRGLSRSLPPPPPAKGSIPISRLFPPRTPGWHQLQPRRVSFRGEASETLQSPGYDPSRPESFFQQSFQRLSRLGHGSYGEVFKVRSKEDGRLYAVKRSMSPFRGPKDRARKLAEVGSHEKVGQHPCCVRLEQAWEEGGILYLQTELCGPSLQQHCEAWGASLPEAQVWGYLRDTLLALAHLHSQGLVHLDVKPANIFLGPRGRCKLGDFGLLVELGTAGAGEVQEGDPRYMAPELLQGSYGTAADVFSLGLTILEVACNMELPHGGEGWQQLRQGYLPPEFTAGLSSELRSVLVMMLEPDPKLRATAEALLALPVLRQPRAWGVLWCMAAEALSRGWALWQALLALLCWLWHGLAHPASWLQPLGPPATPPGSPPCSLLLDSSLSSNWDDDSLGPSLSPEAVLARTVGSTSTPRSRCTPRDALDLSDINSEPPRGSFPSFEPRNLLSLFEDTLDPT
Method: Recombinant MYT1 protein and the compounds were pre-incubated at room temperature for 15 min, and 10 μM ATP was then added to start the reaction. The mixture was incubated at room temperature for another 60 min, and the ADP-GLO reagent from Promega was then added. The resulting mixture was incubated in the dark for 40 min, a detection solution was then added, and the mixture was incubated for another 45-60 min. The chemiluminescence was determined using ENVISION. The inhibition rate and IC50 were calculated compared to the DMSO group.

[8] = test system: MIA PaCa-2 cells; test: In vitro anti-proliferative activity against MIA PaCa-2 cells (compound alone); type: cell-based; details: 72 h, intracellular ATP content
Method: as §1, with “cells/well.” for “cells/well, and 20 nM gemcitabine was added.”, “10 μM” for “1000 nM”

[9] = test system: MDCK-MDR1; test: in vitro; details: MDCK-MDR1
Method: as §2

[10] = test system: MDCK-Wild type; test: in vitro
Method: as §2

[11] = female, CD-1, plasma, iv, injection 2 mg/kg
[12] = stability in FaSSIF, initial pH 6.52, 37° C.
[13] = stability in FeSSIF, initial pH 4.98, 37° C.
[14] = stability in SGF, initial pH 1.2, 37° C.
[15] = stability in Water, initial pH 7.7, 37° C.

IC50 ([1]; Homo sapiens, MIA PaCa-2, 72 h, read-out: Anti-proliferative activity against MIA PaCa-2 cells (20 nM gemcitabine) IC50, with 20 nM gemcitabine, 72 h, intracellular ATP content): 29 nM
AUC(0-t) [2, 11]: 376 ng·h/mL
half-life [2, 11]: 0.56 h
Vd ([2]; female, CD-1, plasma, iv, injection 2 mg/kg, read-out: Vdss): 2.46 L/kg
AUC(0-t) ([2]; female, CD-1, plasma, oral administration 10 mg/kg): 1030 ng·h/mL
Cmax ([2]; female, CD-1, plasma, oral administration 10 mg/kg, read-out: Cmax): 881 ng/mL
Cl ([2]; injection 2 mg/kg): 46.5 mL/min/kg
F % ([2]; oral administration 10 mg/kg): 54.7%
efflux ratio at 90 min, 5 μM [3]: 2.17
Papp A→B at 90 min, 5 µM ([3]; Papp A-B Mean): 17.1 ×10⁻⁶ cm/s
Papp A→B at 90 min, 5 µM ([3]; Papp A-B Sample - 01): 15.1 ×10⁻⁶ cm/s
Papp A→B at 90 min, 5 µM ([3]; Papp A-B Sample - 02): 19.1 ×10⁻⁶ cm/s
Papp B→A at 90 min, 5 µM ([3]; Papp B-A Mean): 37.2 ×10⁻⁶ cm/s
Papp B→A at 90 min, 5 µM ([3]; Papp B-A Sample - 01): 38.5 ×10⁻⁶ cm/s
Papp B→A at 90 min, 5 µM ([3]; Papp B-A Sample - 02): 35.9 ×10⁻⁶ cm/s
efflux ratio at 90 min, 5 μM ([4]; MDCK-MDR1): 2.64
Papp A→B at 90 min, 5 µM ([4]; MDCK-MDR1, Papp A-B Mean): 13.9 ×10⁻⁶ cm/s
Papp A→B at 90 min, 5 µM ([4]; MDCK-MDR1, Papp A-B Sample - 01): 13.9 ×10⁻⁶ cm/s
Papp A→B at 90 min, 5 µM ([4]; MDCK-MDR1, Papp A-B Sample - 02): 14 ×10⁻⁶ cm/s
Papp B→A at 90 min, 5 µM ([4]; MDCK-MDR1, Papp B-A Mean): 36.9 ×10⁻⁶ cm/s
Papp B→A at 90 min, 5 µM ([4]; MDCK-MDR1, Papp B-A Sample - 01): 37.6 ×10⁻⁶ cm/s
Papp B→A at 90 min, 5 µM ([4]; MDCK-MDR1, Papp B-A Sample - 02): 36.2 ×10⁻⁶ cm/s
solubility at 0.5 h ([5]; Methanol): 20200 µg/mL (≈ 62.2 mM)
solubility at 0.5 h ([5]; Tetrahydrofuran): 4520 µg/mL (≈ 13.9 mM)
HPLC purity (%, 220 nm) 0.5 h [6, 12]: 58.88%
HPLC purity (%, 220 nm) 0.5 h [6, 13]: 74.51%
HPLC purity (%, 220 nm) 0.5 h [6, 14]: 98.18%
HPLC purity (%, 220 nm) 0.5 h [6, 15]: 40.92%
SMILES: Cc1cc2c(C(N)=O)c(N)n(-c3c(C)ccc(O)c3C)c2nc1C [RP-6306, reference compound]

SMILES: Cc1cc2c(C(N)=O)c(N)n(-c3c(C)c(O)cc(F)c3C)c2nc1C (single isomer, unassigned) [Compound 2]
IC50 [7]: ≤ 200 nM
IC50 [8]: 4320 nM
IC50 ([1]; read-out: Anti-proliferative activity against MIA PaCa-2 cells (20 nM gemcitabine) IC50, with 20 nM gemcitabine, 72 h, intracellular ATP content): 18 nM
anti-proliferative activity against MIA PaCa-2 cells in combination with gemcitabine (in words) ([1]; with 20 nM gemcitabine): stronger anti-proliferative activity than that of RP-6306
Vdss compared to RP-6306 (in words) [2]: greater increase in Vdss compared to RP-6306
half-life T1/2 compared to RP-6306 (in words) [2]: longer half-life T1/2 compared to RP-6306
AUC0-last ([2]; injection 2 mg/kg): 337.7 ng·h/mL
Cl ([2]; injection 2 mg/kg): 94.4 mL/min/kg
T1/2 ([2]; injection 2 mg/kg): 3.32 h
Vdss ([2]; injection 2 mg/kg): 6.76 L/kg
AUC0-last ([2]; oral administration 10 mg/kg): 638.2 ng·h/mL
Cmax ([2]; oral administration 10 mg/kg): 603.3 ng/mL
F % ([2]; oral administration 10 mg/kg): 44.5%
T1/2 ([2]; oral administration 10 mg/kg): 3.84 h
Papp A-B Mean [9]: 20.50 10^−6 cm · s^−1
Papp A-B Sample - 01 [9]: 21.08 10^−6 cm · s^−1
Papp A-B Sample - 02 [9]: 19.91 10^−6 cm · s^−1
Papp B-A Mean [9]: 35.01 10^−6 cm · s^−1
Papp B-A Sample - 01 [9]: 35.27 10^−6 cm · s^−1
Papp B-A Sample - 02 [9]: 34.76 10^−6 cm · s^−1
permeability compared to RP-6306 (in words) [9]: superior permeability to that of RP-6306
Papp A-B Mean [10]: 27.10 10^−6 cm · s^−1
Papp A-B Sample - 01 [10]: 27.93 10^−6 cm · s^−1
Papp A-B Sample - 02 [10]: 26.28 10^−6 cm · s^−1
Papp B-A Mean [10]: 42.24 10^−6 cm · s^−1
Papp B-A Sample - 01 [10]: 39.97 10^−6 cm · s^−1
Papp B-A Sample - 02 [10]: 44.50 10^−6 cm · s^−1
permeability compared to RP-6306 (in words) [10]: superior permeability to that of RP-6306
solubility compared to RP-6306 (in words) ([5]; FaSSIF, FeSSIF, SGF, water, methanol, tetrahydrofuran): higher solubility in various vehicles
Solubility 0.5 h ([5]; FaSSIF, initial pH 6.52, 37° C.): 61 µg/mL (≈ 0.178 mM)
Solubility 0.5 h ([5]; FeSSIF, initial pH 4.98, 37° C.): 327 µg/mL (≈ 0.955 mM)
Solubility 0.5 h ([5]; Methanol): 40568 µg/mL (≈ 118 mM)
Solubility 0.5 h ([5]; SGF, initial pH 1.2, 37° C.): 4865 µg/mL (≈ 14.2 mM)
Solubility 0.5 h ([5]; Tetrahydrofuran): 6114 µg/mL (≈ 17.9 mM)
Solubility 0.5 h ([5]; Water, initial pH 7.7, 37° C.): 270 µg/mL (≈ 0.789 mM)
stability compared to RP-6306 (in words) ([6]; FaSSIF, FeSSIF, water): more stable than RP-6306 in FaSSIF, FeSSIF, and water
HPLC purity (%, 220 nm) 0.5 h [6, 12]: 88.76%
HPLC purity (%, 220 nm) 0.5 h [6, 13]: 95.98%
HPLC purity (%, 220 nm) 0.5 h [6, 14]: 98.69%
HPLC purity (%, 220 nm) 0.5 h [6, 15]: 96.4%
